# Patent US12329758B2, “Methods for the treatment of psoriatic arthritis” (Alfasigma S.p.A., priority 2018, dated 2025)
# Like-named read-outs stand apart in the source and are kept apart here.
# What was measured:
# [1] = test system: enthesitis in PsA patients; experiment: Phase 2 clinical study NCT03101670, enthesitis by Leeds Enthesitis Index (LEI); format: in vivo, human; details: for LEI score (change from baseline): 200 mg q.d.
# Description: As used herein, the term ‘Leeds Enthesitis Index’ or ‘LEI’ refers to a clinical scoring after examination of (entheseal) tenderness at six sites: 2 sites at each of the lateral epicondyles of the humerus, medial condyles of the femur and the insertion of the Achilles tendon. The LEI score range is 0-6. The higher the score, the higher the enthesitis burden.
# (§1) This is a multicenter, Phase 2, double-blind, placebo-controlled study in subjects with moderately to severely active PsA who have an inadequate response or are intolerant to conventional disease-modifying therapy. […] Randomization to treatment groups are stratified by current cDMARD use (yes or no) and prior anti-TNF pharmaceutical use (yes or no).
# In addition to the 16 sites used to assess enthesitis when evaluating the SPARCC Enthesitis Index, medial femoral condyles (left and right) is also assessed and evaluated in a similar way as the other 16 sites to allow assessing the Leeds enthesitis index (LEI).
# Enthesitis is assessed using the SPARCC Enthesitis Index and Leeds Enthesitis Index (LEI). The Enthesitis parameters are analyzed only in the subpopulation of subjects who have enthesitis at baseline (LEI >0). Analysis focusses on the changes from baseline.
# [2] = test system: enthesitis in PsA patients; experiment: Phase 2 clinical study NCT03101670, enthesitis by SPARCC Enthesitis Index; details: human, in vivo
# Procedure: As used herein, the term ‘SPARCC Enthesitis Index’ refers to a clinical scoring after examination of (entheseal) tenderness at 16 peripheral sites, which are evaluated for tenderness by palpation, and scored 0 (non-tender) or 1 (tender). The total enthesitis score is the sum of all site scores and is maximally 16. The higher the score, the higher the enthesitis burden. (Maksymowych W P et al. Development and validation of the Spondyloarthritis Research Consortium of Canada (SPARCC) Enthesitis Index. Ann Rheum Dis 2009; 68:948-53)
# as §1
# Enthesitis is assessed using the SPARCC Enthesitis Index. Sixteen body sites is evaluated for tenderness by palpation, and scored with 0 (non-tender) or 1 (tender). The total enthesitis score is the sum of all site scores and is maximally 16. The higher the score, the higher the enthesitis burden.
# Enthesitis is assessed using the SPARCC Enthesitis Index and Leeds Enthesitis Index (LEI). The Enthesitis parameters are analyzed only in the subpopulation of subjects who have enthesitis at baseline (LEI >0). […]
# [3] = test system: moderately to severely active PsA; experiment: Phase 2 clinical study NCT03101670, physical function (HAQ-DI); format: in vivo, human; details: 200 mg q.d.
# Description: As used herein, the term 'HAQ-ID' refers to the Health Assessment Questionnaire […] Disability Index, which is a measure for the physical functioning of a patient. The HAQ-DI is a 20-question instrument assessing the degree of difficulty a person has in accomplishing tasks in 8 function areas (B. Bruce and J. Fries, “The Stanford Health Assessment Questionnaire: dimensions and practical applications,” Health Qual Life Outcomes, p. 1:20, 2003). The HAQ-DI total score ranges from 0 to 3 with higher scores indicating greater dysfunction. This is a multicenter, Phase 2, double-blind, placebo-controlled study in subjects with moderately to severely active PsA who have an inadequate response or are intolerant to conventional disease-modifying therapy. […] Randomization to treatment groups are stratified by current […] use (yes or no) and prior anti-TNF pharmaceutical use (yes or no). The HAQ-DI is used to monitor the subject's self-assessed physical function or disability. This 20-question instrument assesses the degree of difficulty a person has in accomplishing tasks in 8 function areas (getting dressed, arising, eating, walking, […], hygiene, reaching, gripping, errands and chores). Responses are scored on a 4-point Likert scale from 0, indicating no difficulty, to 3, indicating inability to perform a task in that area. The need for aids/devices or help from another person is also recorded. The HAQ-DI total score ranges from 0 to 3 with higher scores indicating greater dysfunction. HAQ-DI is scored on a scale from 0 to 3 and changes from baseline are reported. A decrease by at least 0.22 points versus the baseline is considered clinically meaningful.
# [4] = test system: moderately to severely active PsA; experiment: Phase 2 clinical study NCT03101670, Minimal Disease Activity (MDA); format: in vivo, human; details: 200 mg q.d.
# Description: As used herein, the term ‘MDA’ refers to the Minimal Disease Activity, which is a measure for disease remission. For the purpose of the present invention a patient will be classified as having achieved MDA when 5 out of 7 of the following criteria are met: • TJC68 ≤1 • SJC66 ≤1 • PASI ≤1 or BSA ≤3% • Patient's Global Assessment of PsA pain intensity score ≤15 (0-100 mm VAS) • Patient's Global Assessment of Disease Activity ≤20 (0-100 mm VAS) • HAQ-DI ≤0.5 • SPARCC Enthesitis Index ≤1.
# as §1
# The disease activity in PsA will be measured using the MDA, which is a measure to indicate disease remission. The MDA is based on a composite score of 7 domains. A patient will be classified as having achieved MDA when 5 out of 7 of the following criteria are met: • TJC68 ≤1 • SJC66 ≤1 • PASI ≤1 or BSA ≤3% • Patient's Global Assessment of PsA pain intensity score ≤15 (0-100 mm VAS) • Patient's Global Assessment of Disease Activity ≤20 (0-100 mm VAS) • HAQ-DI ≤0.5 • SPARCC Enthesitis Index ≤1
# [5] = test system: moderately to severely active PsA; experiment: Phase 2 clinical study NCT03101670, ACR20/50/70 response; format: in vivo, human; details: for ACR20 / ACR50 / ACR70: 200 mg q.d.
# Description: For the purpose of the present invention, the terms “ACR20”, “ACR50” and “ACR70” as used herein are scores which indicate how much a patient's symptoms of peripheral arthritis have improved according to criteria set out by the American College of Rheumatology (ACR). The ACR score represents a percentage. An ACR20 score means that a person's arthritis symptoms have improved by 20%, an ACR50 score means it has improved by 50%, and an ACR70 score means it has improved by 70%. Specifically, to qualify for an ACR20 score, a person must have at least 20% fewer tender joints (at least 20% improvement from baseline in tender joint counts, TJC68) and at least 20% fewer swollen joints (at least 20% improvement from baseline in swollen joint counts, SJC66). In addition the patient must show a 20% improvement in at least three of the following five areas: the person's overall (global) assessment of his or her own disease activity (on a 0-100 mm visual analog scale (VAS)), the physician's global assessment of the person's disease activity (on a 0-100 mm VAS), the person's assessment of his or her own PsA pain intensity (on a 0-100 mm VAS), the person's assessment of his or her own physical functioning as measured by HAQ-DI, and the results of a C-reactive protein (CRP) blood test (in mg/dL or mg/L). ACR50 and ACR70 scores use the same criteria but require 50% and 70% improvement, respectively.
# as §1
# Efficacy assessments to estimate signs and symptoms of PsA and peripheral arthritis, psoriasis, enthesitis, dactylitis, spondylitis, and physical function are carried out at Baseline (Day 1) and at Weeks 1, 2, 4, 8, 12, 16, or at the early discontinuation visit (EDV) if applicable, unless otherwise noted. The individual components of the ACR response criteria are obtained at screening and throughout the study.
# The patient's assessment of pain is performed using a 0-100 mm VAS ranging from “no pain” to “unbearable pain” after the question “Please indicate with a vertical mark (|) through the horizontal line the most pain you had from your psoriatic arthritis today”. The length of the line from 0 to the patient's mark is recorded. This assessment should be completed before the joint examination. This pain score is also used to derive the ACR20/50/70.
# The signs and symptoms of peripheral arthritis are measured using ACR20/50/70. The ACR response is a measurement of improvement in multiple disease assessment criteria.
# A positive ACR20 response is defined as at least 20% improvement from baseline in both swollen (SJC66) and tender (TJC68) joint counts, and at least 20% improvement in 3 or more of the following 5 criteria: • Patient's Global Assessment of Disease Activity (0-100 mm VAS) • Physician's Global Assessment of Disease Activity (0-100 mm VAS) • Patient's Global Assessment of PsA pain intensity (0-100 mm VAS) • Patient's assessment of physical function as measured by HAQ-DI • CRP in mg/dL or mg/L
# A positive ACR50 and ACR70 response is derived from the definition of the ACR20, but requiring at least 50% and 70% improvement, respectively.
# [6] = test system: psoriasis in PsA subjects with ≥3% BSA at baseline; experiment: Phase 2 clinical study NCT03101670, psoriasis (PASI); format: in vivo, human; details: 200 mg q.d.
# Description: As used herein, the term ‘PASI’ refers to the Psoriasis Area and Severity Index score and is an index used to express the severity of psoriasis. It combines the severity (erythema, induration and desquamation) and percentage of affected area. Further details on the determination of PASI is provided in example 1. The PASI score represents the change from baseline. ‘PASI50’ refers to the portion of patients who achieved 50% improvement in the PASI score upon the tested treatment. ‘PASI75’ refers to the portion of patients who achieved 75% improvement in the PASI score upon the tested treatment. ‘PASI90’ refers to the portion of patients who achieved 90% improvement in the PASI score upon the tested treatment.
# as §1
# The PASI score is used to measure the severity and extent of psoriasis. Representative area of psoriasis is selected for each body region (head, arms, trunk and legs). The intensity of erythema, induration and desquamation of the psoriasis is assessed as none (0), mild (1), moderate (2), severe (3) or very severe (4).
# A numerical score, ranging from 0 to 100%, will be used to measure the proportion of the subject's total BSA involved with psoriasis, as assessed by the investigator.
# Four sites of affection, the head (h), upper limb (u), trunk (t) and lower limbs (l), are separately scored by using 3 parameters, erythema (E), induration (I) and desquamation (D), each of which is graded on a severity scale of 0 to 4 (0=none, 1=mild, 2=moderate, 3=severe and 4=very severe) (Section 1.4.6). The area-wise percentage involvement of the involved sites is calculated as: 1=less than 10% area; 2=10-29%; 3=30-49%; 4=50-69%; 5=70-89%; and 6=more than 90%. The final formula for PASI score is: PASI=0.1×(Eh+Ih+Dh)×Ah+0.2×(Eu+Iu+Du)×Au+0.3×(Et+It+Dt)×At+0.4×(El+Il+Dl)×Al
# The total PASI score ranges between 0 (no disease) and 72 (maximal disease), but is considered unreliable when BSA <3%. Therefore, the PASI is only analysed in the subpopulation of subjects with psoriasis involving ≥3% BSA at baseline.
# The following PASI parameters can be derived: • PASI change from baseline • PASI 50% improvement (PASI50) • PASI 75% improvement (PASI75) • PASI 90% improvement (PASI90) • PASI 100% improvement or complete resolution of all disease (PASI100)
# [7] = abundance of the metabolite relative to the parent compound in humans; format: in vivo, human; details: relative to compound I
# Description: (§2) Though the potency of this metabolite is lower than the parent molecule, the overall exposure and peak plasma concentration in humans is higher than seen in all tested animal species. As a consequence, dedicated pharmacology and toxicology studies have been performed with compound II. […] The compound according to formula II is described in WO2013/189771.
# [8] = target: JAK1 (Homo sapiens, UniProt P23458); experiment: inhibition of JAK1 signaling by the metabolite relative to the parent; details: relative to compound I
# Chain of JAK1 (P23458 whole entry, species assumed): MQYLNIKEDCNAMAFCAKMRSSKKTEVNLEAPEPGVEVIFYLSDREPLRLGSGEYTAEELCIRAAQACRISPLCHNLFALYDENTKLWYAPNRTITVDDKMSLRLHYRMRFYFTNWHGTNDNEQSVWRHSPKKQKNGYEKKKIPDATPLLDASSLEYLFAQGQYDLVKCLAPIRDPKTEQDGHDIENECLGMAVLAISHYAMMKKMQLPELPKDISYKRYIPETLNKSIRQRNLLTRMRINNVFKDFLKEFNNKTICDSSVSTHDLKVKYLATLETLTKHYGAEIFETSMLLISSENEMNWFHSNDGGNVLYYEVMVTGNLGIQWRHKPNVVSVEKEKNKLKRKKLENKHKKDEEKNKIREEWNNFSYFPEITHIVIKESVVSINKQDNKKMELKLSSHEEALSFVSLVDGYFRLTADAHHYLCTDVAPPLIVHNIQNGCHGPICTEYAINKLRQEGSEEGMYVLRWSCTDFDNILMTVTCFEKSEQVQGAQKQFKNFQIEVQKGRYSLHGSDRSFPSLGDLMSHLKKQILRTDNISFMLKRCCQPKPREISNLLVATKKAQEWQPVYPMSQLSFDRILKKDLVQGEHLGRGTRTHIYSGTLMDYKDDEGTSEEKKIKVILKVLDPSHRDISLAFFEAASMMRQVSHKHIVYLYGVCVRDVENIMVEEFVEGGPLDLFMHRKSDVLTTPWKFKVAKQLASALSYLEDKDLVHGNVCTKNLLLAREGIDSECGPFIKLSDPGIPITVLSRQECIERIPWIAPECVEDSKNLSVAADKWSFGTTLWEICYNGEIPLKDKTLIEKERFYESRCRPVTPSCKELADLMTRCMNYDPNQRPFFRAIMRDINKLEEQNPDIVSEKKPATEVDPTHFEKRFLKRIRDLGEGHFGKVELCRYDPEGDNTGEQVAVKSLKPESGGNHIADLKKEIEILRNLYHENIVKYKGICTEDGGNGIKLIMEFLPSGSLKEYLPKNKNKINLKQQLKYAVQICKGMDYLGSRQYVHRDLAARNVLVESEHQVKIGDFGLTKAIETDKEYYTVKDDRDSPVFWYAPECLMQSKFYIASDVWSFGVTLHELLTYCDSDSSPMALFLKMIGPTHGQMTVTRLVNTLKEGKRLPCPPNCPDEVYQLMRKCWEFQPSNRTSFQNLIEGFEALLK
# Description: as §2
# [9] = test system: active psoriatic arthritis; details: cited from earlier work
# [10] = W12, subjects with ≥3% BSA at baseline
# [11] = W16, subjects with ≥3% BSA at baseline
smiles,measurement,setting,value
"O=C(Nc1nc2cccc(-c3ccc(CN4CCS(=O)(=O)CC4)cc3)n2n1)C1CC1 [compound I, cyclopropanecarboxylic acid {5-[4-(1,1-dioxo-thiomorpholin-4-ylmethyl)-phenyl]-[1,2,4]triazolo[1,5-a]pyridin-2yl}-amide]",LEI score (change from baseline),"[1]; Week 4, enthesitis at baseline (LEI >0)",−1.7
same,LEI score (change from baseline),"[1]; Week 8, enthesitis at baseline (LEI >0)",−2.1
same,LEI score (change from baseline),"[1]; Week 12, enthesitis at baseline (LEI >0)",−1.9
same,LEI score (change from baseline),"[1]; Week 16, enthesitis at baseline (LEI >0)",−1.8
same,"Enthesitis resolved per LEI, treatment difference versus placebo",[1]; patients with enthesitis at baseline,26%
same,effect on enthesitis compared with placebo,[2],improved enthesitis compared with placebo
same,HAQ-DI (change from baseline),[3]; Week 1,−0.19
same,HAQ-DI (change from baseline),[3]; Week 2,−0.30
same,HAQ-DI (change from baseline),[3]; Week 4,−0.44
same,HAQ-DI (change from baseline),[3]; Week 8,−0.50
same,HAQ-DI (change from baseline),[3]; Week 12,−0.53
same,HAQ-DI (change from baseline),[3]; Week 16,−0.57
same,MDA,[4]; Week 12,21.5%
same,MDA,[4]; Week 16,23.1%
same,ACR20,[5]; Week 1,26.2%
same,ACR50,[5]; Week 1,6.2%
same,ACR70,[5]; Week 1,1.5%
same,ACR20,[5]; Week 2,33.8%
same,ACR50,[5]; Week 2,10.8%
same,ACR70,[5]; Week 2,3.1%
same,ACR20,[5]; Week 4,61.5%
same,ACR50,[5]; Week 4,20.0%
same,ACR70,[5]; Week 4,7.7%
same,ACR20,[5]; Week 8,67.7%
same,ACR50,[5]; Week 8,32.3%
same,ACR70,[5]; Week 8,12.3%
same,ACR20,[5]; Week 12,83.1%
same,ACR50,[5]; Week 12,41.5%
same,ACR70,[5]; Week 12,10.8%
same,ACR50,[5]; Week 16,47.7%
same,ACR70,[5]; Week 16,23.1%
same,ACR20 and ACR50 difference from placebo,[5]; as from week 1,statistically significant difference from placebo
same,"difference in ACR20, ACR50 and ACR70 score versus placebo",[5]; week 16,statistically significant difference
same,PASI75,[6]; [10],33.3%
same,PASI mean cfb,[6]; [10],−5.5
same,PASI75,[6]; [11],45.2%
same,PASI mean cfb,[6]; [11],−6.3
Nc1nc2cccc(-c3ccc(CN4CCS(=O)(=O)CC4)cc3)n2n1 [compound II],"abundance, fold more abundant than the parent compound",[7],about 10 fold
same,"potency on JAK1 signaling, fold less potent than parent compound",[8],approximately 20 fold
C[C@@H]1CCN(C(=O)CC#N)C[C@@H]1N(C)c1ncnc2[nH]ccc12 [tofacitinib],ACR20 response rate,"[9]; month 3, dosed at 5 mg",50%
same,ACR20 response rate,"[9]; month 3, dosed at 10 mg",61%
